Laboratory results from US20240216385A1, “A PI3K-DELTA INHIBITOR FOR THE TREATMENT OF PANCREATIC CANCER” (IONCTURA SA, priority 2021, published 2024).

Experiments:
[1] = test system: KPC mouse model of pancreatic ductal adenocarcinoma (PDAC); test: KPC mouse model of pancreatic cancer, histological analysis of pancreata; assay type: in vivo; conditions: KPC mice treated from 5 to 11 weeks of age; Compound 2 in mixed chow; FIG. 1
Text: Control animals received normal drinking water and standard chow.

[2] = test system: KPC/WCB3 cells orthotopically injected into the pancreas; test: KPC/WCB3 orthotopic mouse model of pancreatic cancer, histological analysis of pancreata; assay type: in vivo; conditions: orthotopic KPC/WCB3, C57BL/6J mice; treatment from day 7 for one month; FIG. 4
Text: This model is constituted by the implantation of KPC/WBC3 cells originating from a spontaneous developed donor tumour in KPC mice into the pancreas of male wildtype C57BL/6J recipient mice. The pathology and tumour microenvironment in this model closely resemble human pancreatic cancer.
Control animals received normal drinking water and standard chow. One month after initiation treatment was stopped and mice were euthanized. Pancreata were harvested and analysed by histological analysis for level of fibrosis, number of Tregs and number of proliferating CAFs.

pancreatic cancer = pancreatic cancer patients, standard treatment; cited from earlier work

Question: For `C[C@H](NC(=O)CCc1nc2cccnc2n1Cc1ccc(OC(F)(F)F)cc1)c1ccc(Cl)cc1` [Compound 2, N-[(S)-1-(4-chloro-phenyl)-ethyl]-3-[3-(4-trifluoromethoxy-benzyl)-3H-imidazo[4,5-b]pyridin-2-yl]-propionamide], which “number of low-grade (PanIN-1 and PanIN-2) lesions” value [1] is on record?
Answer: reduces

Question: And the tumour burden [1]?
Answer: without having significant effects

Question: And the Tregs [2]?
Answer: significantly reduces

Question: What about the “proliferating CAFs” value [2] of the same molecule?
Answer: significantly reduces

Question: What about the tumour fibrosis score [2] of the same molecule?
Answer: limited effect

Question: What does the source list for `Nc1ccn([C@@H]2O[C@H](CO)[C@@H](O)C2(F)F)c(=O)n1` [gemcitabine]?
Answer: average median overall survival (pancreatic cancer): 6 months; response rate (pancreatic cancer): 5-10%
